IC50 data for 33 compounds are collected here from patent US20130303509A1, “NAMPT INHIBITORS” (AbbVie Inc., priority 2012, published 2013).

The test deals with PC3 cells. As to the kind of experiment: NAMPT Cell Proliferation Assay. Format: cell-based. To be noted: Homo sapiens, PC-3, 120 h, 5 days incubation, cell viability by Cell Titer Glo. The method in brief:
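Five-day CellTiter-Glo viability readout in PC3 cells grown in RPMI/10% heat-inactivated FBS. Compounds added after overnight attachment as a 10-fold dilution series, […]. Percent inhibition fitted to sigmoidal dose-response to derive IC50.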
In the case of `O=C(Nc1ccc(OC2CCN(C(=O)C3CC3)CC2)cc1)C1CN(c2ccnnc2)C1` [Example 301, N-(4-{[1-(cyclopropylcarbonyl)piperidin-4-yl]oxy}phenyl)-1-(pyridazin-4-yl)azetidine-3-carboxamide], half-maximal inhibition (IC50) required 90.5 nM. Then `O=C(Nc1ccc(C2CCN(C(=O)c3ccsc3)CC2)cc1)C1CN(c2ccnnc2)C1` [Example 530, 1-(pyridazin-4-yl)-N-{4-[1-(thiophen-3-ylcarbonyl)piperidin-4-yl]phenyl}azetidine-3-carboxamide], with 2.02 nM; and `CC(C)(C)OC(=O)N1CCC(Oc2ccc(NC(=O)[C@H]3CCN(c4cccnc4)C3)cc2)CC1` [Example 8, tert-butyl 4-[4-({[(3S)-1-(pyridin-3-yl)pyrrolidin-3-yl]carbonyl}amino)phenoxy]piperidine-1-carboxylate], with 70.8 nM; and `O=C(Nc1ccc(C2CCN(C(=O)c3ccc(F)cc3)CC2)cc1)C1CN(c2ccc(F)nn2)C1` [Example 823, N-{4-[1-(4-fluorobenzoyl)piperidin-4-yl]phenyl}-1-(6-fluoropyridazin-3-yl)azetidine-3-carboxamide], with 247 nM.

`CCC(C)(C)CN1CCC(c2ccc(NC(=O)C3CN(c4cccnc4)C3)cc2)CC1` [Example 89, N-{4-[1-(2,2-dimethylbutyl)piperidin-4-yl]phenyl}-1-(pyridin-3-yl)azetidine-3-carboxamide] returned an IC50 of 64.6 nM.

With `Cc1cccc(C(=O)N2CCC(c3ccc(NC(=O)C4CN(c5cccnn5)C4)cc3)CC2)c1` [Example 341, N-{4-[1-(3-methylbenzoyl)piperidin-4-yl]phenyl}-1-(pyridazin-3-yl)azetidine-3-carboxamide], the IC50 was determined as 1.98 nM.

The compound `O=C(Nc1ccc(C2CCN(C(=O)Cc3ccc(F)cc3)CC2)cc1)[C@H]1CCN(c2cccnn2)C1` [Example 675, (3S)-N-(4-{1-[(4-fluorophenyl)acetyl]piperidin-4-yl}phenyl)-1-(pyridazin-3-yl)pyrrolidine-3-carboxamide] returned an IC50 of 69.3 nM.

As to `CC1(C(=O)N2CCC(c3ccc(NC(=O)C4CN(c5cccnc5)C4)cc3)CC2)CCCCC1` [Example 117, N-(4-{1-[(1-methylcyclohexyl)carbonyl]piperidin-4-yl}phenyl)-1-(pyridin-3-yl)azetidine-3-carboxamide], the IC50 amounted to 0.63 nM. The value for `O=C(Nc1ccc(C2CCN(C(=O)CCCc3cccs3)CC2)cc1)[C@H]1CCN(c2cccnn2)C1` [Example 642, (3S)-1-(pyridazin-3-yl)-N-(4-{1-[4-(thiophen-2-yl)butanoyl]piperidin-4-yl}phenyl)pyrrolidine-3-carboxamide] was 7.26 nM.

Turning to `O=C1CC[C@H](C(=O)N2CCC(c3ccc(NC(=O)C4CN(c5cccnc5)C4)cc3)CC2)N1` [Example 106, N-{4-[1-(5-oxo D-prolyl)piperidin-4-yl]phenyl}-1-(pyridin-3-yl)azetidine-3-carboxamide], the midpoint of inhibition, the IC50, lay at 61.8 nM. In turn, `O=C(Nc1ccc(C2CCN(C(=O)c3cccc(F)c3F)CC2)cc1)C1CN(c2cccnn2)C1` [Example 390, N-{4-[1-(2,3-difluorobenzoyl)piperidin-4-yl]phenyl}-1-(pyridazin-3-yl)azetidine-3-carboxamide] displayed an IC50 of 1.5 nM. Then `CC(C)(C)OC(=O)N1CCC(Oc2ccc(C(=O)N[C@@H]3CCN(c4cccnc4)C3)cc2)CC1` [Example 28, tert-butyl 4-(4-{[(3R)-1-(pyridin-3-yl)pyrrolidin-3-yl]carbamoyl}phenoxy)piperidine-1-carboxylate], with greater than 10000 nM. The value for `O=C(Nc1ccc(OC2CCN(C(=O)c3ccc(F)cc3)CC2)cc1)C1CN(c2cccnn2)C1` [Example 230, N-(4-{[1-(4-fluorobenzoyl)piperidin-4-yl]oxy}phenyl)-1-(pyridazin-3-yl)azetidine-3-carboxamide] was 9.05 nM; that for `O=C(Nc1ccc(C2CCN(C(=O)Cc3ccc(Cl)cc3Cl)CC2)cc1)[C@H]1CCN(c2cccnn2)C1` [Example 651, (3S)-N-(4-{1-[(2,4-dichlorophenyl)acetyl]piperidin-4-yl}phenyl)-1-(pyridazin-3-yl)pyrrolidine-3-carboxamide] was 27.6 nM; that for `Cc1ncccc1N1CC(C(=O)Nc2ccc(C3CCN(C(=O)c4ccc(C(F)(F)F)cc4)CC3)cc2)C1` [Example 157, 1-(2-methylpyridin-3-yl)-N-(4-{1-[4-(trifluoromethyl)benzoyl]piperidin-4-yl}phenyl)azetidine-3-carboxamide] was 948 nM. With `O=C(Nc1ccc(C2CCN(C(=O)CN3CCOCC3)CC2)cc1)C1CN(c2cccnc2)C1` [Example 103, N-{4-[1-(morpholin-4-ylacetyl)piperidin-4-yl]phenyl}-1-(pyridin-3-yl)azetidine-3-carboxamide], the IC50 was found to be 1.44 nM. In turn, `O=C(Nc1ccc(C2(F)CCN(C(=O)OCc3ccccc3)CC2)cc1)C1CN(c2ccc(Cl)nn2)C1` [Example 853, benzyl 4-[4-({[1-(6-chloropyridazin-3-yl)azetidin-3-yl]carbonyl}amino)phenyl]-4-fluoropiperidine-1-carboxylate] showed a 50% inhibitory concentration (IC50) greater than 10000 nM. `CC(C)c1ccc(C(=O)N2CCC(c3ccc(NC(=O)C4CN(c5cccnn5)C4)cc3)CC2)cc1` [Example 392, N-(4-{1-[4-(propan-2-yl)benzoyl]piperidin-4-yl}phenyl)-1-(pyridazin-3-yl)azetidine-3-carboxamide] registered an IC50 of 3.54 nM. `CCC(CC)C(=O)N1CCC(c2ccc(NC(=O)C3CN(c4cccnn4)C3)cc2)CC1` [Example 328, N-{4-[1-(2-ethylbutanoyl)piperidin-4-yl]phenyl}-1-(pyridazin-3-yl)azetidine-3-carboxamide] had an IC50 of 1.59 nM. The value for `CCC(=O)N1CCC(c2ccc(NC(=O)C3CN(c4cccnc4)C3)cc2)CC1` [Example 121, N-[4-(1-propanoylpiperidin-4-yl)phenyl]-1-(pyridin-3-yl)azetidine-3-carboxamide] was 0.62 nM. The compound `CC(C)(O)C(=O)N1CCC(c2ccc(NC(=O)C3CN(c4cccnc4)C3)cc2)CC1` [Example 20, N-{4-[1-(2-hydroxy-2-methylpropanoyl)piperidin-4-yl]phenyl}-1-(pyridin-3-yl)azetidine-3-carboxamide] returned an IC50 of 0.28 nM. As for `O=C(Nc1ccc(C2CCN(C(=O)c3ccc(OC(F)(F)F)cc3)CC2)cc1)C1CN(c2ccnnc2)C1` [Example 555, 1-(pyridazin-4-yl)-N-(4-{1-[4-(trifluoromethoxy)benzoyl]piperidin-4-yl}phenyl)azetidine-3-carboxamide], half-maximal inhibition (IC50) was put at 23.9 nM. The value for `CO[C@@H](C(=O)N1CCC(c2ccc(NC(=O)C3CN(c4cccnn4)C3)cc2)CC1)c1ccccc1` [Example 407, N-(4-{1-[(2R)-2-methoxy-2-phenylacetyl]piperidin-4-yl}phenyl)-1-(pyridazin-3-yl)azetidine-3-carboxamide] was 1.01 nM; that for `O=C(Nc1ccc(OC2CCN(C(=O)Cc3ccc(C(F)(F)F)cc3)CC2)cc1)C1CN(c2cccnn2)C1` [Example 220, 1-(pyridazin-3-yl)-N-{4-[(1-{[4-(trifluoromethyl)phenyl]acetyl}piperidin-4-yl)oxy]phenyl}azetidine-3-carboxamide] was 13.2 nM. Then `O=C(Nc1ccc(O[C@@H]2CCN(C(=O)C3CCC(F)(F)CC3)C2)cc1)C1CN(c2ccnnc2)C1` [Example 482, N-[4-({(3R)-1-[(4,4-difluorocyclohexyl)carbonyl]pyrrolidin-3-yl}oxy)phenyl]-1-(pyridazin-4-yl)azetidine-3-carboxamide], with 32.6 nM. With `O=C(Nc1ccc(S(=O)(=O)C2CCN(C(=O)c3cccc4ccccc34)CC2)cc1)C1CN(c2cccnn2)C1` [Example 591, N-(4-{[1-(naphthalen-1-ylcarbonyl)piperidin-4-yl]sulfonyl}phenyl)-1-(pyridazin-3-yl)azetidine-3-carboxamide], half-maximal inhibition (IC50) required 93.6 nM. The value for `O=C(Nc1ccc(C2CCN(C(=O)c3ccc(F)cc3F)CC2)cc1F)C1CN(c2cccnn2)C1` [Example 833, N-{4-[1-(2,4-difluorobenzoyl)piperidin-4-yl]-2-fluorophenyl}-1-(pyridazin-3-yl)azetidine-3-carboxamide] was 6.67 nM. For the compound `O=C(Nc1ccc(OC2CCN(C(=O)Cc3ccc(OC(F)(F)F)cc3)CC2)cc1)C1CN(c2cccnn2)C1` [Example 238, 1-(pyridazin-3-yl)-N-{4-[(1-{[4-(trifluoromethoxy)phenyl]acetyl}piperidin-4-yl)oxy]phenyl}azetidine-3-carboxamide], the midpoint of inhibition, the IC50, lay at 15.7 nM. Then `CCCCC(=O)N1CCC(Oc2ccc(NC(=O)C3CN(c4cccnc4)C3)cc2)CC1` [Example 34, N-{4-[(1-pentanoylpiperidin-4-yl)oxy]phenyl}-1-(pyridin-3-yl)azetidine-3-carboxamide], with 6.8 nM.

The compound `O=C(Nc1ccc(C2CCN(C(=O)Cc3cccc(C(F)(F)F)c3)CC2)cc1)[C@H]1CCN(c2cccnn2)C1` [Example 648, (3S)-1-(pyridazin-3-yl)-N-[4-(1-{[3-(trifluoromethyl)phenyl]acetyl}piperidin-4-yl)phenyl]pyrrolidine-3-carboxamide] came in with an IC50 of 26.8 nM. The value for `O=C(NC1CN(c2cccnn2)C1)c1ccc(C2CCN(C(=O)CCC(F)(F)F)CC2)s1` [Example 855, N-[1-(pyridazin-3-yl)azetidin-3-yl]-5-[1-(4,4,4-trifluorobutanoyl)piperidin-4-yl]thiophene-2-carboxamide] was 747 nM; that for `O=C(Nc1ccc(C2CCN(C(=O)CC3CCOCC3)CC2)cc1)C1CN(c2cccnc2)C1` [Example 25, 1-(pyridin-3-yl)-N-{4-[1-(tetrahydro-2H-pyran-4-ylacetyl)piperidin-4-yl]phenyl}azetidine-3-carboxamide] was 1.41 nM.

Compound `O=C(Nc1ccc(C2CCN(C(=O)c3ccco3)CC2)cc1)[C@H]1CCN(c2cccnn2)C1` [Example 649, (3S)-N-{4-[1-(furan-2-ylcarbonyl)piperidin-4-yl]phenyl}-1-(pyridazin-3-yl)pyrrolidine-3-carboxamide] gave an IC50 of 1.11 nM.
